# Measurements from US4217305A, “Phenylethanolamine derivatives” (Yamanouchi Pharmaceutical Co., Ltd., priority 1977, dated 1980).
# What was measured:
# Assay type in all cases: in vivo
# [1] = system: spontaneously hypertensive rats; assay: Antihypertensive effects in spontaneously hypertensive rats, oral administration; conditions: at 10 mg/Kg p.o., mean ± S.E. of 5 to 10 animals, measured indirectly from the tail
# Description: B. Antihypertensive effects in spontaneously hypertensive rats: Oral administration: The systolic blood pressure was measured indirectly from the tail using a programmed electro-sphygmanometer (Nacro Bio-Systems Inc., PE-300) on spontaneously hypertensive rats having a systolic blood pressure of higher than 150 mmHg, the result being shown in Table II.
# [2] = system: β-Adrenergic; assay: β-Adrenergic blocking action: antagonism of isoproterenol induced tachycardia in rats; conditions: reserpine pretreated, pentobarbital anesthetized rats, isoproterenol 0.1 μg/Kg iv.; for β-blocking (Rat) ED50: i.v., hydrochloride; for ED50: Rattus norvegicus, iv
# Description: Bilateral vagotomy was performed at the neck. The effects of the test samples to antagonize the isoproterenol (0.1 μg/Kg iv.) induced tachycardia were measured and the results were shown in Table I.
# [3] = system: α-Adrenergic; assay: α-Adrenergic blocking action: antagonism of hypertensive response to phenylephrine in anesthetized rats; conditions: urethane anesthetized, pentolinium treated rats, phenylephrine 10 μg/Kg i.v.; for α-blocking (Rat) ED50: i.v., hydrochloride; for ED50: Rattus norvegicus, iv, read-out: α-blocking (Rat) ED50
# Description: A. α-Adrenergic blocking action: (a) The blood pressure was measured in rats anesthetized with urethane and treated with pentolinium.
Structure (SMILES),"antihypertensive effect: change in systolic blood pressure ([1]; hydrochloride, 10 mg/kg) [mmHg]",β-blocking (Rat) ED50 [2] [mg/kg],α-blocking (Rat) ED50 [3] [mg/kg],antihypertensive effect: change in systolic blood pressure [1] [mmHg],ED50 [2] [mg/kg],ED50 [3] [mg/kg]
"COc1ccccc1CCC(C)NCC(O)c1ccc(C)c(S(N)(=O)=O)c1.Cl (stereo not drawn) [36(i1 + i2), 5-{1-Hydroxy-2-[3-(2-methoxyphenyl)-1-methylpropylamino]-ethyl}-2-methylbenzenesulfonamide hydrochloride]",-40 ± 6.6,0.095,0.43,,,
COc1ccccc1OCC(C)(C)NCC(O)c1ccc(C)c(S(N)(=O)=O)c1 (stereo not drawn) [Example 9],,,,-25 ± 4.2,0.26,0.89
"COc1ccccc1OCCNCC(O)c1ccc(C)c(S(N)(=O)=O)c1.Cl (stereo not drawn) [Example 47, 5-{1-Hydroxy-2-[2-(2-methoxyphenoxy)ethylamino]ethyl}-2-methylbenzenesulfonamide hydrochloride]",,,,-35 ± 6.4,0.16,0.034
"COc1ccccc1OCC(C)NCC(O)c1ccc(O)c(S(N)(=O)=O)c1.Cl (stereo not drawn) [Example 43, 2-Hydroxy-5-{1-hydroxy-2-[2-(2-methoxyphenoxy)-1-methylethylamino]ethyl}benzenesulfonamide hydrochloride]",,,,-33 ± 6.9,0.53,0.0091
"Cc1ccc(C(O)CNC(C)COc2ccccc2O)cc1S(N)(=O)=O.Cl (stereo not drawn) [Example 41, 5-{1-Hydroxy-2-[2-(2-hydroxyphenoxy)-1-methylethylamino]-ethyl}-2-methylbenzenesulfonamide hydrochloride]",,,,-30 ± 4.9,0.044,0.66
"COc1ccccc1CCC(C)NCC(O)c1ccc(C)c(S(N)(=O)=O)c1.Cl (stereo not drawn) [36(i1), 5-{1-hydroxy-2-[3-(2-methoxyphenyl)-1-methylpropylamino]ethyl}-2-methylbenzenesulfonamide hydrochloride]",-18 ± 6.1,0.071,1.2,,,
"COc1ccccc1CCC(C)NCC(O)c1ccc(C)c(S(N)(=O)=O)c1.Cl (stereo not drawn) [36(i2), 5-{1-hydroxy-2-[3-(2-methoxyphenyl)-1-methylpropylamino]ethyl}-2-methylbenzenesulfonamide hydrochloride]",-33 ± 5.7,0.41,0.093,,,
Cc1ccc(C(O)CNC(C)C2COc3ccccc3O2)cc1S(N)(=O)=O (stereo not drawn) [Example 28],,,,-23 ± 4.3,0.42,1.1
